Assay results published in PubChem BioAssay AID1592 (Sanford-Burnham Center for Chemical Genomics, 2009).
Active and inactive are the calls of the source.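 How the source made its calls: active means less than 90% of the starting compound still present after 180 minutes in mouse plasma; inactive means 90% or more still present.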

System: mouse plasma stability, LC/MS/MS, 180 min
Assay: mouse plasma degradation, percent remaining – biochemical, LC/MS/MS, 180 min, dry powder, ADME assay, late-stage follow-up (AID 1592)
Settings: at 1 µM; hits give low values

With `C=CCn1c(SCC(=O)c2ccc(O)c(O)c2)nnc1-c1ccccc1OC` the percent remaining was 93.2% (inactive).
